Where two headings read alike, the source gives them in different places. Marks after values point to notes of the source that are not given here.
Tests used:
[1] = tested on: coxsackie virus B3 (CVB3); test: Impact of the drugs on the virus-induced cytopathy (MTT); type: cell-based; details: CVB3 100 TCID50, Vero cells, about the maximal non-cytotoxic concentration, 72 hours
Enterovirus EV71 = test: as above; type: cell-based; details: EV71 100 TCID50, Vero cells, about the maximal non-cytotoxic concentration, 72 hours
[2] = tested on: respiratory syncytial virus (RSV); test: as above; type: cell-based; details: RSV 100 TCID50, Vero cells, about the maximal non-cytotoxic concentration, 72 hours
[3] = tested on: rabbit fever induced by typhoid and paratyphoid vaccine; test: Rabbit fever induced by typhoid and paratyphoid vaccine; type: in vivo, Japanese white rabbits
Description: Japanese male big-ear white rabbits, weighing 1.5-2.0 kg. Before the test, WSC-411P portable digital thermometer was used to measure the normal rectal temperature twice (with certain interval for each time), and the average value was taken as the normal body temperature. Then 48 Japanese big-ear white rabbits with body temperature of 38-39.6° C. were selected and randomly divided into 8 groups by weight, namely: the blank control (normal saline) group, the model control (0.5% carboxymethylcellulose) group, the ibuprofen group (300 mg/kg), the phillygenin group (10 mg/kg), the 1.25, 2.5, and 5 mg/kg phillygenin ibuprofen ester groups and the positive drug paracetamol (50 mg/kg) group. The rabbits were fixed in a fixator. The blank control group was intravenously injected with normal saline of 1 ml/kg via the ear margin; The model control group and the drug groups were intravenously injected with typhoid and paratyphoid vaccines of 0.8 ml/kg via the ear margin. When the body temperature rise of the rabbits was greater than 1° C. (requiring about 1-1.5 h, which was restricted to 1 h in this test), the blank control group and the model group were administered intragastrically with 0.5% carboxymethycellulose of 1 ml/kg, and the drug groups were administered intragastrically with phillygenin ibuprofen ester and paracetamol. […]

[4] = tested on: sweat gland epithelial cells at the rat toe part; test: Sweat secretion of rat paw part (tissue morphology observation method); type: in vivo, Wistar rats; details: for Number of sweat glands of vacuole / Void fraction (%): rat toe part
Description: This test was based on the mechanism that when rat sweat gland is excited, in addition to sweat secretion increase, the morphology of sweat gland epithelial cell is also changed. The number increase and expansion of empty cells of the sweat gland epithelial cells can be seen under the optical microscope. Such enlarged vacuole presents mitochondrial in sweat gland epithelial cells swelling, rupture, fusion and secretory vesicle enlargement under the electron microscope, and through the morphological observation of the sweat gland epithelial cell at the rat paw part, the secretory activity of the sweat gland can be known. In the test, 70 Wistar rats were selected, with equal male and female number, weighing 120-160 g. […] Besides that subcutaneous injection was used for the pilocarpine solution, intragastric administration was used for all the other groups.

parainfluenza virus [5] = test: Impact of the drugs on the virus-induced cytopathy (MTT); type: cell-based; details: parainfluenza virus 100 TCID50, Vero cells, about the maximal non-cytotoxic concentration, 72 hours
[6] = tested on: Herpes Simplex Virus type I (HSV-1); test: as above; type: cell-based; details: HSV-I 100 TCID50, Vero cells, about the maximal non-cytotoxic concentration, 72 hours
Solubility = type: physicochemical
parainfluenza virus [7] = type: in vivo, Kunming mice; details: for Lung index (X ± S) / Lung index Inhibitive rate (%): parainfluenza virus infected mice, 5 days
Vero cell = test: Cytotoxicity test on Vero cell (MTT); details: 72 hours
influenza virus [8] = type: in vivo, Kunming mice; details: for Lung index (X ± S) / Lung index Inhibitive rate (%): influenza virus infected mice, 5 days
[9] = tested on: influenza and parainfluenza virus induced pneumonia; test: Histomorphology observation of lung; type: in vivo, Kunming mice; details: high dosage and medium dosage groups, Day 5 after treatment
Description: On Day 5 after treatment, the lungs of mice in each group were picked, and general pathological changes of their viscera are observed by naked eyes and are recorded. The lungs were rinsed with normal saline and moisture thereon is sucked up by using filter paper, a part of the lung was fixed with 10% formaldehyde and embedded with paraffin and sliced, and the lung tissue slices were stained with HE, followed by observation and photographing under a microscope.

parainfluenza virus [10] = type: in vivo, Kunming mice; details: mouse, in vivo
influenza virus [11] = type: in vivo, Kunming mice; details: lung suspensions, influenza virus infected mice, 5 days
[12] = 300 mg/kg, time after administration (min) 30
[13] = 300 mg/kg, time after administration (min) 60
[14] = 300 mg/kg, time after administration (min) 90
[15] = 300 mg/kg, time after administration (min) 120
[16] = 300 mg/kg, time after administration (min) 180
[17] = 1.25 mg/kg, time after administration (min) 30
[18] = 1.25 mg/kg, time after administration (min) 60
[19] = 1.25 mg/kg, time after administration (min) 90
[20] = 1.25 mg/kg, time after administration (min) 120
[21] = 1.25 mg/kg, time after administration (min) 180
[22] = 2.5 mg/kg, time after administration (min) 30
[23] = 2.5 mg/kg, time after administration (min) 60
[24] = 2.5 mg/kg, time after administration (min) 90
[25] = 2.5 mg/kg, time after administration (min) 120
[26] = 2.5 mg/kg, time after administration (min) 180
[27] = 5.0 mg/kg, time after administration (min) 30
[28] = 5.0 mg/kg, time after administration (min) 90
[29] = 5.0 mg/kg, time after administration (min) 120
[30] = 5.0 mg/kg, time after administration (min) 180

CC(C)Cc1ccc(C(C)C(=O)O)cc1 (stereo not drawn) [Ibuprofen]
antiviral effective rate (ER %) [1]: 50.89%
antiviral effective rate (ER %) (Enterovirus EV71): 75.86** %
antiviral effective rate (ER %) [2]: 80.88** %
Body temperature (° C.) [3, 12]: 40.74 ± 0.52 °C
antipyretic percentage (%) [3, 12]: −0.90 ± 0.41 %
Body temperature (° C.) [3, 13]: 40.56 ± 0.40 °C
antipyretic percentage (%) [3, 13]: −1.35 ± 0.11 %
Body temperature (° C.) [3, 14]: 40.07 ± 0.44 °C
antipyretic percentage (%) [3, 14]: −2.52 ± 0.13 %
Body temperature (° C.) [3, 15]: 39.88 ± 0.55 °C
antipyretic percentage (%) [3, 15]: −3.00 ± 0.23 %
Body temperature (° C.) [3, 16]: 39.77 ± 0.53 °C
antipyretic percentage (%) [3, 16]: −3.25 ± 0.29 %
Number of sweat glands of vacuole ([4]; 300.0 mg/kg intragastric): 57
Void fraction (%) ([4]; 300.0 mg/kg intragastric): 27.40*** %
antiviral effective rate (ER %) (parainfluenza virus [5]): 80.72** %
antiviral effective rate (ER %) [6]: 84.30** %

COc1ccc([C@H]2OCC3C2CO[C@H]3c2ccc(OC)c(OC(=O)C(C)c3ccc(CC(C)C)cc3)c2)cc1OC (stereo partly drawn) [Phillygenin ibuprofen ester, phillygenin ibuprofen ester]
solubility (Solubility): soluble in methanol; chloroform, and dichloromethane
antiviral effective rate (ER %) [1]: 75.83**^## %
effect on average lung index vs infection model group (parainfluenza virus [7]; mouse, in vivo): certain protective effect
Lung index (X ± S) (parainfluenza virus [7]; 3.25 mg/kg/d intragastric): 1.320 ± 0.053
Lung index Inhibitive rate (%) (parainfluenza virus [7]; 3.25 mg/kg/d intragastric): 17.01%
Lung index (X ± S) (parainfluenza virus [7]; 13.0 mg/kg/d intragastric): 1.237 ± 0.070
Lung index Inhibitive rate (%) (parainfluenza virus [7]; 13.0 mg/kg/d intragastric): 22.25%
antiviral effective rate (ER %) (Enterovirus EV71): 99.81**^## %
antiviral effective rate (ER %) [2]: 87.74**^# %
Median toxic concentration (TC50) (Vero cell): 485 µg/mL
maximal non-toxic concentration (TC0) (Vero cell): 0.109 g/L
Body temperature (° C.) [3, 17]: 40.68 ± 0.41 °C
antipyretic percentage (%) [3, 17]: 0.98 ± 0.11%
Body temperature (° C.) [3, 18]: 40.61 ± 0.38 °C
antipyretic percentage (%) [3, 18]: −1.15 ± 0.15 %
Body temperature (° C.) [3, 19]: 40.50 ± 0.39 °C
antipyretic percentage (%) [3, 19]: −1.40 ± 0.20 %
Body temperature (° C.) [3, 20]: 40.29 ± 0.42 °C
antipyretic percentage (%) [3, 20]: −1.92 ± 0.31 %
Body temperature (° C.) [3, 21]: 40.10 ± 0.35 °C
antipyretic percentage (%) [3, 21]: −2.39 ± 0.43 %
Body temperature (° C.) [3, 22]: 40.83 ± 0.39 °C
antipyretic percentage (%) [3, 22]: −1.10 ± 0.00 %
Body temperature (° C.) [3, 23]: 40.37 ± 0.33 °C
antipyretic percentage (%) [3, 23]: −2.20 ± 0.05**^Δ▴▴ %
Body temperature (° C.) [3, 24]: 40.12 ± 0.21 °C
antipyretic percentage (%) [3, 24]: −2.81 ± 0.12 %
Body temperature (° C.) [3, 25]: 40.02 ± 0.20 °C
antipyretic percentage (%) [3, 25]: −3.06 ± 0.43 %
Body temperature (° C.) [3, 26]: 39.90 ± 0.25 °C
antipyretic percentage (%) [3, 26]: −3.35 ± 0.29 %
antipyretic percentage (%) ([3]; 5.0 mg/kg, 60 min after administration): −2.61 ± 0.10**^ΔΔ▴▴ %
Body temperature (° C.) [3, 27]: 40.57 ± 0.28 °C
antipyretic percentage (%) [3, 27]: −1.30 ± 0.11 %
Body temperature (° C.) ([3]; 5.0 mg/kg, time after administration (min) 60): 40.04 ± 0.20 °C
Body temperature (° C.) [3, 28]: 39.88 ± 0.23 °C
antipyretic percentage (%) [3, 28]: −2.98 ± 0.22 %
Body temperature (° C.) [3, 29]: 39.65 ± 0.20 °C
antipyretic percentage (%) [3, 29]: −3.54 ± 0.18***^Δ▴▴▴ %
Body temperature (° C.) [3, 30]: 39.42 ± 0.25 °C
antipyretic percentage (%) [3, 30]: −4.10 ± 0.17***^Δ▴▴ %
effect on rabbit fever induced by the typhoid and paratyphoid vaccines vs model group ([3]; high and medium dose groups (5, 10 mg/kg) 30-240 min, low dose group (5 mg/kg) 60-240 min after administration): significant antipyretic effect
effect on the sweat secretion of the rat toe part vs control group ([4]; 5 and 10 mg/kg, p<0.01 or p<0.001): obvious promoting effect
Number of sweat glands of vacuole ([4]; 2.5 mg/kg intragastric): 20
Void fraction (%) ([4]; 2.5 mg/kg intragastric): 8.47%
Number of sweat glands of vacuole ([4]; 5.0 mg/kg intragastric): 42
Void fraction (%) ([4]; 5.0 mg/kg intragastric): 32.11***; ^# %
Number of sweat glands of vacuole ([4]; 10.0 mg/kg intragastric): 75
Void fraction (%) ([4]; 10.0 mg/kg intragastric): 35.21***; ^## %
Lung index (X ± S) (influenza virus [8]; 4.0 mg/kg/d intragastric): 1.222 ± 0.040
Lung index Inhibitive rate (%) (influenza virus [8]; 4.0 mg/kg/d intragastric): 17.90%
Lung index (X ± S) (influenza virus [8]; 8.0 mg/kg/d intragastric): 1.190 ± 0.061
Lung index Inhibitive rate (%) (influenza virus [8]; 8.0 mg/kg/d intragastric): 20.05%
Lung index (X ± S) (influenza virus [8]; 13.0 mg/kg/d intragastric): 1.147 ± 0.048
Lung index Inhibitive rate (%) (influenza virus [8]; 13.0 mg/kg/d intragastric): 22.94%
effect on average lung index vs infection model group (influenza virus [8]; mouse, in vivo): certain protective effect
lung lesions of mice (lung histology, HE) [9]: significantly alleviated
antiviral effective rate (ER %) (parainfluenza virus [5]): 100.00**^# %
antiviral effective rate (ER %) [6]: 99.80**^# %
Hemagglutination titer (InX) (parainfluenza virus [10]; 3.25 mg/kg/day): 21.55 ± 0.857
Hemagglutination titer Inhibitive rate (%) (parainfluenza virus [10]; 3.25 mg/kg/day): 34.90%
Hemagglutination titer (InX) (parainfluenza virus [10]; 13 mg/kg/day): 19.75 ± 0.902
Hemagglutination titer Inhibitive rate (%) (parainfluenza virus [10]; 13 mg/kg/day): 40.34%
Hemagglutination titer (InX) (influenza virus [11]; 3.25 mg/kg/d): 22.01 ± 1.420
Hemagglutination titer Inhibitive rate (%) (influenza virus [11]; 3.25 mg/kg/d): 32.07%
Hemagglutination titer (InX) (influenza virus [11]; 13.0 mg/kg/d): 19.32 ± 0.624
Hemagglutination titer Inhibitive rate (%) (influenza virus [11]; 13.0 mg/kg/d): 40.36%
